Experimental data reported in the supplement of paper PMC10627819.

Assays:
S. aureus Newman [1] = test: fitness (endpoint OD595 vs no drug) (fraction); higher = more growth
Method in brief: (§1)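 Growth medium was TSB, LB Lennox or CY, and plates were kept at 37 °C. Inoculation was at OD595 0.01 in 384-well plates, at 30 µl per well or 55 µl for S. pneumoniae. OD595 was monitored every 30 min for 14 h and background-subtracted using the first reading. Fitness is the optical density on entering stationary phase divided by the robust mean of no-drug controls, with values capped at 1.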

S. aureus DSM 20231 [2] = test: as above
Method in brief: as §1

B. subtilis 168 [3] = test: as above
Method in brief: as §1

S. pneumoniae D39V [4] = test: as above
Method in brief: as §1

S. aureus Newman [5] = test: Bliss interaction score (quartile over a dose matrix) (fitness difference); higher = more antagonism (negative = synergy)
Method in brief: (§2)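 The Bliss score is observed minus expected fitness, where expected fitness is the product of the single-drug fitness values inferred from the combination data. Fitness is the OD595 at the onset of stationary phase over the plate's robust no-drug mean, capped at 1. Scores are summarised by quartiles over technical, biological and donor/recipient replicates.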

S. aureus DSM 20231 [6] = test: as above
Method in brief: as §2

B. subtilis 168 [7] = test: as above
Method in brief: as §2

S. pneumoniae D39V [8] = test: as above
Method in brief: as §2
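Throughout, for Bliss interaction score (quartile over a dose matrix): first quartile when negative (synergy) and third quartile when positive (antagonism).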
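Throughout, for fitness (endpoint OD595 vs no drug): OD595 on entry to stationary phase over no-drug wells; at most 1.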

CO/N=C(\C(=O)N[C@@H]1C(=O)N2C(C(=O)O)=C(COC(C)=O)CS[C@H]12)c1csc(N)n1 [Cefotaxime] + CN1C2=CC=CC=C2N=C3C1=CC=CC3=O [Pyocyanin]
fitness, one replicate
Conditions	partner 1.25 µg/mL	partner 2.5 µg/mL	partner 5 µg/mL
B. subtilis 168 [3], first compound 0.00775 µg/mL	0.775	0.712	0.534
B. subtilis 168 [3], first compound 0.0155 µg/mL	0.665	0.543	0.407
B. subtilis 168 [3], first compound 0.031 µg/mL	0.522	0.462	0.35
S. aureus DSM 20231 [2], first compound 0.039 µg/mL	0.748	0.738	0.512
S. aureus Newman [1], first compound 0.039 µg/mL	0.677	0.696	0.424
S. aureus Newman [1], first compound 0.625 µg/mL	0.0517	0.0483	0.0237
S. aureus Newman [1], first compound 1.25 µg/mL	0.0559	0.0861	0.0706
S. aureus Newman [1], first compound 2.5 µg/mL	0.0452	0.0518	0.0704

fitness
Conditions	partner 0.325 µg/mL	partner 0.65 µg/mL	partner 1.25 µg/mL	partner 1.3 µg/mL	partner 2.5 µg/mL	partner 5 µg/mL
B. subtilis 168 [3], first compound 0.5 µg/mL	–	–	0.291	–	0.264	0.229
B. subtilis 168 [3], first compound 1 µg/mL	–	–	0.144	–	0.102	0.111
B. subtilis 168 [3], first compound 2 µg/mL	–	–	0.0757	–	0.0908	0.0747
S. aureus DSM 20231 [2], first compound 0.078 µg/mL	–	–	0.746	–	0.766	0.55
S. aureus DSM 20231 [2], first compound 0.156 µg/mL	–	–	0.757	–	0.746	0.511
S. aureus DSM 20231 [2], first compound 0.312 µg/mL	–	–	0.676	–	0.671	0.474
S. aureus Newman [1], first compound 0.078 µg/mL	–	–	0.671	–	0.654	0.399
S. aureus Newman [1], first compound 0.156 µg/mL	–	–	0.527	–	0.552	0.354
S. aureus Newman [1], first compound 0.312 µg/mL	–	–	0.311	–	0.319	0.204
S. pneumoniae D39V [4], first compound 0.0018 µg/mL	0.992	≥ 1	–	0.904	–	–
S. pneumoniae D39V [4], first compound 0.0035 µg/mL	0.98	≥ 1	–	0.871	–	–
S. pneumoniae D39V [4], first compound 0.007 µg/mL	0.934	0.947	–	0.839	–	–

Conditions	Bliss interaction score
B. subtilis 168 [7]	0.0372
S. aureus DSM 20231 [6]	0.0641
S. aureus Newman [5]	0.0647
S. pneumoniae D39V [8]	0.0458

Cc1ncc([N+](=O)[O-])n1CCO [Metronidazole] + COc1ccc(C[C@H](N)C(=O)N[C@H]2[C@@H](O)[C@H](n3cnc4c(N(C)C)ncnc43)O[C@@H]2CO)cc1 [Puromycin]
fitness
Conditions	first compound 0.625 µg/mL	first compound 1.073 µg/mL	first compound 1.25 µg/mL	first compound 2.145 µg/mL	first compound 2.5 µg/mL	first compound 4.29 µg/mL
B. subtilis 168 [3], partner 0.39 µg/mL	0.936	–	0.945	–	0.961	–
B. subtilis 168 [3], partner 0.78 µg/mL	0.953	–	0.931	–	0.937	–
B. subtilis 168 [3], partner 1.56 µg/mL	0.946	–	0.895	–	0.864	–
S. aureus DSM 20231 [2], partner 0.39 µg/mL	0.997	–	≥ 1	–	≥ 1	–
S. aureus DSM 20231 [2], partner 0.78 µg/mL	≥ 1	–	≥ 1	–	≥ 1	–
S. aureus DSM 20231 [2], partner 1.56 µg/mL	≥ 1	–	≥ 1	–	≥ 1	–
S. aureus Newman [1], partner 0.39 µg/mL	0.902	–	0.998	–	≥ 1	–
S. aureus Newman [1], partner 0.78 µg/mL	0.968	–	≥ 1	–	≥ 1	–
S. aureus Newman [1], partner 1.56 µg/mL	≥ 1	–	≥ 1	–	≥ 1	–
S. pneumoniae D39V [4], partner 1 µg/mL	–	≥ 1	–	0.875	–	0.96
S. pneumoniae D39V [4], partner 2 µg/mL	–	0.973	–	0.904	–	0.914
S. pneumoniae D39V [4], partner 4 µg/mL	–	0.874	–	0.836	–	0.88

one replicate
Conditions	fitness
S. aureus DSM 20231 [2], first compound 0.625 µg/mL, partner 3.12 µg/mL	≥ 1
S. aureus DSM 20231 [2], first compound 0.625 µg/mL, partner 6.24 µg/mL	0.756
S. aureus DSM 20231 [2], first compound 1.25 µg/mL, partner 3.12 µg/mL	0.957
S. aureus DSM 20231 [2], first compound 1.25 µg/mL, partner 6.24 µg/mL	0.827
S. aureus DSM 20231 [2], first compound 2.5 µg/mL, partner 3.12 µg/mL	0.977
S. aureus DSM 20231 [2], first compound 2.5 µg/mL, partner 6.24 µg/mL	0.848
S. aureus Newman [1], first compound 0.781 µg/mL, partner 0.39 µg/mL	≥ 1
S. aureus Newman [1], first compound 0.781 µg/mL, partner 0.78 µg/mL	≥ 1
S. aureus Newman [1], first compound 0.781 µg/mL, partner 1.56 µg/mL	≥ 1
S. aureus Newman [1], first compound 1.562 µg/mL, partner 0.39 µg/mL	0.974
S. aureus Newman [1], first compound 1.562 µg/mL, partner 0.78 µg/mL	0.997
S. aureus Newman [1], first compound 1.562 µg/mL, partner 1.56 µg/mL	≥ 1
S. aureus Newman [1], first compound 3.124 µg/mL, partner 0.39 µg/mL	0.933
S. aureus Newman [1], first compound 3.124 µg/mL, partner 0.78 µg/mL	≥ 1
S. aureus Newman [1], first compound 3.124 µg/mL, partner 1.56 µg/mL	≥ 1
S. pneumoniae D39V [4], first compound 1.25 µg/mL, partner 1 µg/mL	0.928
S. pneumoniae D39V [4], first compound 1.25 µg/mL, partner 2 µg/mL	0.97
S. pneumoniae D39V [4], first compound 1.25 µg/mL, partner 4 µg/mL	0.842
S. pneumoniae D39V [4], first compound 2.5 µg/mL, partner 1 µg/mL	0.936
S. pneumoniae D39V [4], first compound 2.5 µg/mL, partner 2 µg/mL	≥ 1
S. pneumoniae D39V [4], first compound 2.5 µg/mL, partner 4 µg/mL	0.835
S. pneumoniae D39V [4], first compound 5 µg/mL, partner 1 µg/mL	0.97
S. pneumoniae D39V [4], first compound 5 µg/mL, partner 2 µg/mL	0.95
S. pneumoniae D39V [4], first compound 5 µg/mL, partner 4 µg/mL	0.852

Conditions	Bliss interaction score
B. subtilis 168 [7]	-0.0368
S. aureus DSM 20231 [6]	0.0499
S. aureus Newman [5]	0.0534
S. pneumoniae D39V [8]	0.129

Cc1ncc([N+](=O)[O-])n1CCO [Metronidazole] + Cc1onc(-c2ccccc2)c1C(=O)N[C@@H]1C(=O)N2[C@@H]1SC(C)(C)[C@@H]2C(=O)O [Oxacillin]
fitness
Conditions	first compound 0.625 µg/mL	first compound 1.073 µg/mL	first compound 1.25 µg/mL	first compound 2.145 µg/mL	first compound 2.5 µg/mL	first compound 4.29 µg/mL	first compound 5 µg/mL
B. subtilis 168 [3], partner 0.002 µg/mL	0.972	–	0.962	–	0.942	–	–
B. subtilis 168 [3], partner 0.004 µg/mL	0.957	–	≥ 1	–	0.942	–	–
B. subtilis 168 [3], partner 0.008 µg/mL	0.946	–	0.869	–	0.858	–	–
S. aureus DSM 20231 [2], partner 0.0156 µg/mL	0.937	–	≥ 1	–	0.991	–	–
S. aureus DSM 20231 [2], partner 0.0312 µg/mL	–	–	0.816	–	0.828	–	–
S. aureus DSM 20231 [2], partner 0.0625 µg/mL	0.632	–	0.645	–	–	–	–
S. aureus Newman [1], partner 0.0156 µg/mL	0.772	–	0.785	–	0.768	–	–
S. aureus Newman [1], partner 0.0312 µg/mL	0.737	–	0.786	–	0.702	–	–
S. aureus Newman [1], partner 0.0625 µg/mL	0.658	–	0.551	–	0.601	–	–
S. pneumoniae D39V [4], partner 0.01 µg/mL	–	0.971	0.985	0.891	0.981	0.965	0.97
S. pneumoniae D39V [4], partner 0.02 µg/mL	–	0.964	0.959	0.967	0.995	–	0.948
S. pneumoniae D39V [4], partner 0.04 µg/mL	–	0.845	0.625	0.888	0.648	0.839	0.566

fitness, one replicate
Conditions	first compound 0.625 µg/mL	first compound 0.781 µg/mL	first compound 1.25 µg/mL	first compound 1.562 µg/mL	first compound 2.5 µg/mL	first compound 3.124 µg/mL
B. subtilis 168 [3], partner 0.075 µg/mL	0.548	–	0.664	–	0.507	–
B. subtilis 168 [3], partner 0.15 µg/mL	0.0434	–	0.0679	–	0.0716	–
B. subtilis 168 [3], partner 0.3 µg/mL	0.0488	–	0.0601	–	0.0718	–
S. aureus Newman [1], partner 0.0156 µg/mL	–	0.826	–	0.749	–	0.817
S. aureus Newman [1], partner 0.0312 µg/mL	–	0.737	–	0.737	–	0.721
S. aureus Newman [1], partner 0.0625 µg/mL	–	0.655	–	0.643	–	0.705

Conditions	Bliss interaction score
B. subtilis 168 [7]	0.0534
S. aureus DSM 20231 [6]	0.0451
S. aureus Newman [5]	0.0703
S. pneumoniae D39V [8]	0.144

CO/N=C(\C(=O)N[C@@H]1C(=O)N2C(C(=O)O)=C(COC(C)=O)CS[C@H]12)c1csc(N)n1 [Cefotaxime] + C[n+]1ccc(-c2cc[n+](C)cc2)cc1 [Paraquat]
fitness
Conditions	partner 1.25 µg/mL	partner 1.5 µg/mL	partner 2.5 µg/mL	partner 3 µg/mL	partner 5 µg/mL	partner 6 µg/mL
B. subtilis 168 [3], first compound 0.5 µg/mL	0.199	–	0.171	–	0.166	–
B. subtilis 168 [3], first compound 1 µg/mL	0.108	–	0.0698	–	0.0734	–
B. subtilis 168 [3], first compound 2 µg/mL	0.0929	–	0.0597	–	0.0873	–
S. aureus DSM 20231 [2], first compound 0.078 µg/mL	0.762	–	0.767	–	0.748	–
S. aureus DSM 20231 [2], first compound 0.156 µg/mL	0.656	–	0.704	–	0.703	–
S. aureus DSM 20231 [2], first compound 0.312 µg/mL	0.611	–	0.664	–	0.65	–
S. aureus Newman [1], first compound 0.078 µg/mL	0.694	–	0.688	–	0.702	–
S. aureus Newman [1], first compound 0.156 µg/mL	0.521	–	0.542	–	0.573	–
S. aureus Newman [1], first compound 0.312 µg/mL	0.304	–	0.314	–	0.29	–
S. pneumoniae D39V [4], first compound 0.0018 µg/mL	–	0.986	–	0.971	–	0.957
S. pneumoniae D39V [4], first compound 0.0035 µg/mL	–	0.992	–	≥ 1	–	0.962
S. pneumoniae D39V [4], first compound 0.007 µg/mL	–	0.944	–	0.93	–	0.843

fitness, one replicate
Conditions	partner 1.25 µg/mL	partner 2.5 µg/mL	partner 5 µg/mL
B. subtilis 168 [3], first compound 0.00775 µg/mL	0.847	0.764	0.596
B. subtilis 168 [3], first compound 0.0155 µg/mL	0.694	0.613	0.332
B. subtilis 168 [3], first compound 0.031 µg/mL	0.494	0.423	0.279
S. aureus DSM 20231 [2], first compound 0.039 µg/mL	0.729	0.775	0.767
S. aureus Newman [1], first compound 0.625 µg/mL	0.0489	0.0421	0.0459
S. aureus Newman [1], first compound 1.25 µg/mL	0.0645	0.0717	0.0769
S. aureus Newman [1], first compound 2.5 µg/mL	0.0777	0.0674	0.0627

Conditions	Bliss interaction score
B. subtilis 168 [7]	-0.0771
S. aureus DSM 20231 [6]	-0.0739
S. aureus Newman [5]	-0.0297
S. pneumoniae D39V [8]	-0.0531
